In patent US6433197B1, “Substituted oxygen alicyclic compounds, including methods for synthesis thereof” (Millennium Pharmaceuticals, Inc., priority 1998, dated 2002):

Test system: Leukotriene B4
Experiment: Human whole blood assay, Leukotriene B4 inhibition
Type: cell-based
Conditions: heparinized human whole blood; pre-incubated 15 minutes at 37° C.; stimulated with 50 μM calcium ionphor for 30 minutes at 37° C.; EIA; read-out: IC50 (Leukotriene B4 inhibition, LTB4 content of plasma)
Experimental: The following compound of the invention was tested for Leukotriene B4 inhibition in the human whole blood assay detailed below. [drawing 40]
Heparinized human whole blood was pre-incubated with selected concentrations of the test compound for 15 minutes at 37° C. and stimulated with 50 μM calcium ionphor for 30 minutes at 37° C. The reaction was stopped by placing samples on ice and cold centrifugation at 4° C. for 10 minutes at 1100×g. Test sample plasma was diluted in buffer and assayed for LTB4 content. Test compound activity was determined as per Cayman […] EIA and evaluated as IC50 [nM].

How did the IC50 turn out when `NC(=O)N(O)CC#CC1CC[C@@H](Cc2ccc(F)cc2)O1` (stereo partly shown) was run?
The IC50 was 148 nM.
